Source: ChEMBL document CHEMBL1255534, “Indoloditerpenes from an algicolous isolate of Aspergillus oryzae” (Bioorg Med Chem Lett, 2010)
Active and inactive are the calls of the source. The calls are words filed in the database; no cut-off is given here.

Tests used:
Escherichia coli = assay: Antibacterial activity against Escherichia coli at 30 ug/ml by agar diffusion test; format: functional
Colletotrichum lagenaria = assay: Antifungal activity against Colletotrichum lagenarium at 30 ug/ml by agar diffusion test; format: functional, organism-based
[1] = Toxicity in Artemia salina assessed as lethal rate at 100 ug/mL; format: organism-based; conditions: in vivo, read-out: Activity
Fusarium oxysporum = assay: Antifungal activity against Fusarium oxysporum at 30 ug/ml by agar diffusion test; format: functional, organism-based

C=C1[C@H](Cc2c[nH]c3ccccc23)CC[C@H]2[C@](C)(CCC=C(C)C)[C@@H](O)CC[C@]12C [EMENIVEOL]
diameter of the inhibition zone (DIZ) (Escherichia coli): inactive
Activity (Colletotrichum lagenaria): inactive
mortality at 100 ug/mL [1]: 31.4%
Activity (Fusarium oxysporum): inactive

CC(C)=C[C@H]1C[C@]2(C)[C@H](CC[C@@]3(C)[C@H]2CC[C@H]2Cc4c([nH]c5ccccc45)[C@@]23C)O1
diameter of the inhibition zone (DIZ) (Escherichia coli): inactive
Activity (Colletotrichum lagenaria): inactive
mortality at 100 ug/mL [1]: 74.2%
Activity (Fusarium oxysporum): inactive

CC(C)(O)/C=C/C[C@]1(C)[C@@H](O)CC[C@@]2(C)[C@H]1CC[C@H]1Cc3c([nH]c4ccccc34)[C@@]12C [ASPORYZIN C]
zone of inhibition at 30 µg/mL (Escherichia coli; read-out: DIZ): 8.3 mm
Activity (Colletotrichum lagenaria): inactive
mortality at 100 ug/mL [1]: 32.8%
Activity (Fusarium oxysporum): inactive

CC(C)=C[C@H]1C[C@@]2(C)[C@@H]3CC[C@H]4CC5(O)c6ccccc6N5C(=O)[C@@H]4[C@@]3(C)CC[C@@H]2O1 (stereo partly specified) [ASPORYZIN B]
diameter of the inhibition zone (DIZ) (Escherichia coli): inactive
Activity (Colletotrichum lagenaria): inactive
mortality at 100 ug/mL [1]: 42.9%
Activity (Fusarium oxysporum): inactive

C/C=C1\[C@H]2C=C(C)C[C@]1(N)c1ccc(=O)[nH]c1C2
diameter of the inhibition zone (DIZ) (Escherichia coli): inactive
Activity (Fusarium oxysporum): inactive

CC(C)=C[C@H]1C[C@]2(C)[C@H](CC[C@@]3(C)[C@H]2CC[C@H]2CC(=O)c4ccccc4NC(=O)[C@@]23C)O1 [ASPORYZIN A]
diameter of the inhibition zone (DIZ) (Escherichia coli): inactive
Activity (Colletotrichum lagenaria): inactive
mortality at 100 ug/mL [1]: 61.9%
Activity (Fusarium oxysporum): inactive

CC(C)=CCC[C@]1(C)[C@@H](O)CC[C@@]2(C)[C@H]1CC[C@H]1Cc3c([nH]c4ccccc34)[C@@]12C [EMINDOLE SB]
diameter of the inhibition zone (DIZ) (Escherichia coli): inactive
Activity (Colletotrichum lagenaria): inactive
mortality at 100 ug/mL [1]: 60.3%
Activity (Fusarium oxysporum): inactive
